Read-outs that look alike come from different tables or passages of the source.
What was measured:
Format in all cases: cell-based
NCl-H2073 (EGFR_WT) = biological target: T1, NCl-H2073 (EGFR_WT) (Homo sapiens, UniProt P00533); experiment: EGFR degradation assay (western blot), NCl-H2073 cells; details: Table 5; NCI-H2073 cells (EGFR_WT), 24 h
T1 construct: endogenous in cells; host or cells: A431, NCI-H2073, NCI-H292
Method: A431 (EGFR_WT), NCl-H2073 (EGFR_WT), NCl-H292 (EGFR_WT), BaF3_YVAM (Her2_A775insYVAM), BaF3_SVD (EGFR_D770insSVD), BaF3_ASV (EGFR_A776inASV), or BaF3_DTC (EGFR_Exon19del/T790M/C797S) cells were seeded in a 24-well plate at a density of 4×10^5 cells per well for EGFR WT cells and 8× cells per well for EGFR or Her2 mutant cells, and the plates were incubated overnight. The cells were treated with the desired compounds for 24 h. The culture medium was removed, and 100 μL of RIPA buffer (Beyotime, P0013B) containing 1% Protease Inhibitor Cocktail (Bimake, B14001), 1% Phosphatase Inhibitor Cocktail 2 (Sigma, P5726), and 1% Phosphatase Inhibitor Cocktail 3 (Sigma, P0044) were added to lyse the cells. Then, the cell lysates were transferred to 1.5 mL microcentrifuge tubes and centrifuged at 12,000 rpm and 4° C. for 30 min. The supernatants were transferred into new tubes, and the protein concentration was determined using the BCA protein quantification method. All samples were diluted to the same concentration using RIPA buffer, loading buffer was added, samples were denatured, and 15 μg of protein per lane was loaded onto a SurePAGE 4-20% Bis-Tris gel. Samples were separated via electrophoresis in MOPS running buffer at 180 V for 100 min. […] Fluorescence was detected using the Odyssey CLx Imaging System, and the data were analyzed with Empiria Studio Software and GraphPad Prism 9. […]

BaF3_DTC = experiment: Cell growth inhibition assay (CellTiter-Glo), BaF3_DTC
A431 = experiment: Cell growth inhibition assay (CellTiter-Glo), A431; details: Homo sapiens, A431 cells
In short: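 Cells were plated in 96-well plates (Corning 3610) at 90 μL of culture medium per well and incubated overnight at 37° C. The next day, a 1,000× DMSO compound stock was diluted 1:100 in cell culture medium, and 10 μL was added per well. After shaking for 10 min, luminescence was read on an Envision (PerkinElmer) reader.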

BaF3_ASV = experiment: Cell growth inhibition assay (CellTiter-Glo), BaF3_ASV; details: for GI50: BaF3_ASV cells
[1] = biological target: T2, BaF3_SVD (EGFR_D770insSVD) (Homo sapiens, UniProt P00533, INS770SVD); experiment: EGFR degradation assay (western blot), BaF3_SVD cells
T2 construct: expressed in transfected cells; host or cells: Ba/F3 (engineered)
Method: (§1) A431 (EGFR_WT), NCl-H2073 (EGFR_WT), NCl-H292 (EGFR_WT), BaF3_YVAM (Her2_A775insYVAM), BaF3_SVD (EGFR_D770insSVD), BaF3_ASV (EGFR_A776inASV), or BaF3_DTC (EGFR_Exon19del/T790M/C797S) cells were seeded in a 24-well plate at a density of 4×10^5 cells per well for EGFR WT cells and 8× cells per well for EGFR or Her2 mutant cells, and the plates were incubated overnight. The cells were treated with the desired compounds for 24 h. The culture medium was removed, and 100 μL of RIPA buffer (Beyotime, P0013B) containing 1% Protease Inhibitor Cocktail (Bimake, B14001), 1% Phosphatase Inhibitor Cocktail 2 (Sigma, P5726), and 1% Phosphatase Inhibitor Cocktail 3 (Sigma, P0044) were added to lyse the cells. Then, the cell lysates were transferred to 1.5 mL microcentrifuge tubes and centrifuged at 12,000 rpm and 4° C. for 30 min. The supernatants were transferred into new tubes, and the protein concentration was determined using the BCA protein quantification method. All samples were diluted to the same concentration using RIPA buffer, loading buffer was added, samples were denatured, and 15 μg of protein per lane was loaded onto a SurePAGE 4-20% Bis-Tris gel. Samples were separated via electrophoresis in MOPS running buffer at 180 V for 100 min. Then, proteins were transferred onto PVDF membranes using the MiniBlot™ Electrophoretic Transfer Cell Device (Beyotime, E6050). The membrane was blocked using block buffer (LI-COR 927-60001) to prevent non-specific binding. The membrane was incubated with primary antibodies (1:500 dilution, EGFR-CST4405, 1:2000 dilution, Tubulin-ABclonal #AC021) at 4° C. overnight. The membrane was washed three times with 1× TBST buffer for 15 min each. The membrane was incubated with secondary antibodies IRDye 680RD Goat anti-Rabbit IgG Secondary Antibody (1:2000 dilution, LI-COR 926-68071) and IRDye 800CW Goat anti-Mouse IgG Secondary Antibody (1:2000 dilution, LI-COR 926-32210). […] Fluorescence was detected using the Odyssey CLx Imaging System, and the data were analyzed with Empiria Studio Software and GraphPad Prism 9. […]

[2] = biological target: T3, BaF3_YVAM (Her2_A775insYVAM) (Homo sapiens, UniProt P04626, INS775YVMA); experiment: EGFR degradation assay (western blot), BaF3_YVAM cells
T3 construct: expressed in transfected cells; host or cells: Ba/F3 (engineered)
Method: as §1

BaF3_SVD = experiment: Cell growth inhibition assay (CellTiter-Glo), BaF3_SVD
Method: (§2) Cells were seeded in a 96-well plate (Corning 3610) with 90 μL of culture medium per well, and plates were incubated at 37° C. overnight. A 1,000× DMSO stock solution of the desired compound was prepared the following day. A compound dilution plate was prepared by diluting the stock solution 1:100 in the corresponding cell culture medium, 10 μL of the diluted compound solution was added to each 96-well plate well containing the seeded cells. Then, the cells were cultured at 37° C. for three days following compound treatment, 100 μL of CellTiter-Glo reagents (Promega G7573) was added to each well of the 96-well plate. The content of the wells was mixed by shaking continuously for 10 min, and luminescence was measured using Envision (PerkinElmer). The data were analyzed with GraphPad Prism 9 (see FIG. 50).
(§3) Table 6, Table 7, and Table 8 list the cell growth inhibition results, where Gls0 represents the compound concentration to cause 50% cell growth inhibition in comparison with DMSO.

NCI-H292 = experiment: Cell growth inhibition assay (CellTiter-Glo), NCI-H292; details: Homo sapiens; Table 7; NCI-H292 cells; head prints 24 h
Method: as §2, with “Then, the cells were cultured at 37° C. for three days following compound treatment, 100 μL of CellTiter-Glo reagents (Promega G7573) was added to each well of the 96-well plate.” left out
as §3

[3] = tested on: BaF3_DTC (EGFR_Exon19del/T790M/C797S); experiment: EGFR degradation assay (western blot), BaF3_DTC cells
In short: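 Cells seeded overnight, then exposed to compounds for 24 h; lysates run on western blot, EGFR probed with tubulin loading control and fluorescent secondary detection. DC50 = concentration giving 50% EGFR degradation.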

[4] = BaF3_SVD, comparison with Compound A, in words

T2 sequence (P00533 with tags, fused parts or gaps INS770SVD): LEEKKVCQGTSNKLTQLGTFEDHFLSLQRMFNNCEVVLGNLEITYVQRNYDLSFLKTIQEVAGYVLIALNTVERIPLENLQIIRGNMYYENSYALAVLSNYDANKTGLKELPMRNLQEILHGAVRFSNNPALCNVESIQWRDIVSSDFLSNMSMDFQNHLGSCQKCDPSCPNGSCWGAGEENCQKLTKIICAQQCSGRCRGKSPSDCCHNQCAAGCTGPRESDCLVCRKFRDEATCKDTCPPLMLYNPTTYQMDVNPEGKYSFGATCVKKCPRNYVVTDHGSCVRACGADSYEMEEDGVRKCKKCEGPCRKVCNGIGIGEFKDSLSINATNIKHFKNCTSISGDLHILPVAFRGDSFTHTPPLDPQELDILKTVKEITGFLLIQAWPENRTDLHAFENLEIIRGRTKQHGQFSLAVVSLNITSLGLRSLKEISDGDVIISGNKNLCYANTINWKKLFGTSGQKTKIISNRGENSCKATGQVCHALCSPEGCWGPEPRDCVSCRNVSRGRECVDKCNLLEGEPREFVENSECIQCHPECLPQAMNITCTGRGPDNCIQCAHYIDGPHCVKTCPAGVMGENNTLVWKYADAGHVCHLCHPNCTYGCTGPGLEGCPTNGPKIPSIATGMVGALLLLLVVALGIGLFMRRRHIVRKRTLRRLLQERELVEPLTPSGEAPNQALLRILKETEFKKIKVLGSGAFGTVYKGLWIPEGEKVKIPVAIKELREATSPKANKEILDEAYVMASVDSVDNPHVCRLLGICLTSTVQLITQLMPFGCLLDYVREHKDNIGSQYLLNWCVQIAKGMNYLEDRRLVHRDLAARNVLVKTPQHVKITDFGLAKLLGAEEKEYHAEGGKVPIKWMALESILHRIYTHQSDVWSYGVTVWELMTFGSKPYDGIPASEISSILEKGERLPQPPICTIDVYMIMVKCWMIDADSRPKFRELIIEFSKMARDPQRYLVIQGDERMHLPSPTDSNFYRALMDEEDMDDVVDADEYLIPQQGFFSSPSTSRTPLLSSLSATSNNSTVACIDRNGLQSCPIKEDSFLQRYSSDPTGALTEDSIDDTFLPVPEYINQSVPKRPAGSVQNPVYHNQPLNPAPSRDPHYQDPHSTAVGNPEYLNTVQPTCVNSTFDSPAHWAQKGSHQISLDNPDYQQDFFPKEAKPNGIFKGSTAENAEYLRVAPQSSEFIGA
T3 sequence (P04626 with tags, fused parts or gaps INS775YVMA): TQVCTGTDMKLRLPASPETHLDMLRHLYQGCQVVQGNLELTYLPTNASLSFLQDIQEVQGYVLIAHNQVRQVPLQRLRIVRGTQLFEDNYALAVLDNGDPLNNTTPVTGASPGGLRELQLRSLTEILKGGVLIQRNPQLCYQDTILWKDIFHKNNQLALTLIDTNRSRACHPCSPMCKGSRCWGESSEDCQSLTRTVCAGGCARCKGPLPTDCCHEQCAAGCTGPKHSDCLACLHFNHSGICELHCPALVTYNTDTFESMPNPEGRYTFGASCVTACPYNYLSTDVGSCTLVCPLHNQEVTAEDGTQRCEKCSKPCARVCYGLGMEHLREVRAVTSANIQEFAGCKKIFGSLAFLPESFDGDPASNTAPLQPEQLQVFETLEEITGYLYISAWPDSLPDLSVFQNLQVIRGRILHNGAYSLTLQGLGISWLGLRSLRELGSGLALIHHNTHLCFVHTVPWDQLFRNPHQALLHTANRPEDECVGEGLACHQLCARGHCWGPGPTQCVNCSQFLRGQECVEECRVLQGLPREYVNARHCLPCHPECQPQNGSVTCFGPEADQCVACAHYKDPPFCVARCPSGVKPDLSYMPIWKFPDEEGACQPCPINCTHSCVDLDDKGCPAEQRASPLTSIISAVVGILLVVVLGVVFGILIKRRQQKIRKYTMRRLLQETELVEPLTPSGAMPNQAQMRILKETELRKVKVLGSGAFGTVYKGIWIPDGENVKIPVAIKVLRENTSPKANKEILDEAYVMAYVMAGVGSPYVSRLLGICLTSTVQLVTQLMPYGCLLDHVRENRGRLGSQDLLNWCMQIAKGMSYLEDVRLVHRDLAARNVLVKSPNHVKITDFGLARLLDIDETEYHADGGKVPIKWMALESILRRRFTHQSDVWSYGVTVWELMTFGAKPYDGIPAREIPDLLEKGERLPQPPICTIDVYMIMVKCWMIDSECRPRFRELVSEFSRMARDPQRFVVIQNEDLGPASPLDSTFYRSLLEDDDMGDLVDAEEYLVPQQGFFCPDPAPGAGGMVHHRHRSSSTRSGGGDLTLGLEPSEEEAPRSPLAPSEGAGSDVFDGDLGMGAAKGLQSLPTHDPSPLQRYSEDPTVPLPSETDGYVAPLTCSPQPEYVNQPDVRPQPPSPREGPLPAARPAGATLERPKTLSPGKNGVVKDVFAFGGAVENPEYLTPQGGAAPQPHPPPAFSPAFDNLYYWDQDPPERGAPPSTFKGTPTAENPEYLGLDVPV
T1 sequence (P00533 25-1210): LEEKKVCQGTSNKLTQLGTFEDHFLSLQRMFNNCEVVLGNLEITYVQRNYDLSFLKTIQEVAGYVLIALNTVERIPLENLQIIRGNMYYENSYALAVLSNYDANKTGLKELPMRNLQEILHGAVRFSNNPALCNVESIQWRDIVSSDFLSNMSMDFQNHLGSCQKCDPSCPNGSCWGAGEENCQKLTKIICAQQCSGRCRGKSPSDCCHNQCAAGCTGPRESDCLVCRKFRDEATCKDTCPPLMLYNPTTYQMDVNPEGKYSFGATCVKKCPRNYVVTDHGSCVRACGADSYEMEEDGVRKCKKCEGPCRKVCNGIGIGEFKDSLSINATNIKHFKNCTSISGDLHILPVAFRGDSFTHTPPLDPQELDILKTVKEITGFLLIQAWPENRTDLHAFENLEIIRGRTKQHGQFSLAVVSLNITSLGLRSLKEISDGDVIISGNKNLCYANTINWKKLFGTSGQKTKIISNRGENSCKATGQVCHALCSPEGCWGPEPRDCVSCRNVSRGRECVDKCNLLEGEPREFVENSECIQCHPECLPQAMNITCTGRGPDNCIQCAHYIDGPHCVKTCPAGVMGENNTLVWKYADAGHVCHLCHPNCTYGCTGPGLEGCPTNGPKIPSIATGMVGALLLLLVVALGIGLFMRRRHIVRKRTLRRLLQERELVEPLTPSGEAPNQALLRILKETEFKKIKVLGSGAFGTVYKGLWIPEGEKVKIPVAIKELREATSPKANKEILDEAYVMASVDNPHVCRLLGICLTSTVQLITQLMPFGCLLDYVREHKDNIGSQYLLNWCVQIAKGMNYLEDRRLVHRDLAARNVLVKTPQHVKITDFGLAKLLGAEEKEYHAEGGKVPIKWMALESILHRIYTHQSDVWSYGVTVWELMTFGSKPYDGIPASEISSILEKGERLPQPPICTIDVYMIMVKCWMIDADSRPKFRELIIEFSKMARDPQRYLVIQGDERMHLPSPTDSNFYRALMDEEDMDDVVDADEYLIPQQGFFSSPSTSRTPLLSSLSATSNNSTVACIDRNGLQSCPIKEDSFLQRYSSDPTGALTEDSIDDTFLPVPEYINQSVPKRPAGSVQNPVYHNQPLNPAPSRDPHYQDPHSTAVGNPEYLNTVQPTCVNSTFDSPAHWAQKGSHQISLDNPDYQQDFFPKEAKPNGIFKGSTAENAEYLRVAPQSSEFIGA

For `CCc1cc(Nc2ncc(Br)c(Nc3ccc4nccnc4c3NS(C)(=O)=O)n2)c(OC)cc1N1CCC(N2CCN(CCc3cccc4c3n(CC)c(=O)n4C3CCC(=O)NC3=O)CC2)CC1` (centres unmarked) [Compound 11, N-(6-((5-bromo-2-((4-(4-(4-(2-(1-(2,6-dioxopiperidin-3-yl)-3-ethyl-2-oxo-2,3-dihydro-1H-benzo[d]imidazol-4-yl)ethyl)piperazin-1-yl)piperidin-1-yl)-5-ethyl-2-methoxyphenyl)amino)pyrimidin-4-yl)amino)quinoxalin-5-yl)methanesulfonamide], the DC50 (NCl-H2073 (EGFR_WT)) was greater than 1000 nM, the GI50 (BaF3_DTC; 72 h, Table 6, BaF3_DTC cells, three days, CellTiter-Glo, read-out: BaF3_DTC GI50) was 6.37 nM and the GI50 (BaF3_DTC; Table 7, BaF3_Del19/T790M/C797S cells, head prints 24 h, read-out: GI50 (nM), 24 h, BaF3_Del19/T790M/C797S) was 6.37 nM. For the same molecule, the GI50 (A431; A-431, 24 h, Table 7, head prints 24 h, read-out: GI50 (nM), 24 h, A431) was 2500 nM, the GI50 (A431; A-431, 72 h, Table 6, three days, CellTiter-Glo, read-out: A431 GI50) was greater than 1000 nM and the GI50 (BaF3_ASV; 72 h, Table 6, three days, CellTiter-Glo, read-out: BaF3_ASV GI50) was 75.2 nM. For the same molecule, the “Potency in cell growth inhibition compared with Compound A (BaF3_ASV)” value (BaF3_ASV; BaF3_ASV, comparison with Compound A, in words) was “significantly increased potency”, the GI50 (BaF3_ASV; Table 7, head prints 24 h, read-out: GI50 (nM), 24 h, BaF3_ASV) was 75.2 nM and the “Potency in degrading EGFR exon20 insertion mutant form compared with Compound A (BaF3_SVD)” value [1, 4] was “significantly increased potency”. The DC50 ([1]; Table 5, BaF3_SVD cells, 24 h) was 21.6 nM, the “Potency in degrading Her2 mutant form compared with Compound A (BaF3_YVMA)” value ([2]; BaF3_YVMA, comparison with Compound A, in words) was “significantly increased potency” and the DC50 ([2]; Table 5, BaF3_YVMA cells (mutant Her2), 24 h) was 33.3 nM. For the same molecule, the “Potency in cell growth inhibition compared with Compound A (BaF3_SVD)” value (BaF3_SVD; [4]) was “significantly increased potency”, the GI50 (BaF3_SVD; Table 7, BaF3_SVD cells) was 106 nM and the GI50 (NCI-H292) was 436 nM. It also gave a DC50 ([3]; BaF3_DTC cells (EGFR_Exon19del/T790M/C797S), compounds 24 h, western blot, read-out: BaF3_DTC DC50) of 1.2 nM and a DC50 ([3]; Table 5, BaF3_Del19/T790M/C797S cells, 24 h, read-out: DC50 (nM), 24 h, BaF3_Del19/T790M/C797S) of 1.2 nM.
